Experimental data from patent US20240116985A1, “STAPLED PEPTIDES AND METHODS THEREOF” (priority 2020, published 2024).
pIC50: −log10 of the molar value. Like-named read-outs stand apart in the source and are kept apart here.

Target: T1, full-length beta-Catenin (Uniprot ID P35222) (Homo sapiens, UniProt P35222)
T1 construct: 10 nM full-length beta-Catenin (Uniprot ID P35222)
T1 sequence (P35222 1-781): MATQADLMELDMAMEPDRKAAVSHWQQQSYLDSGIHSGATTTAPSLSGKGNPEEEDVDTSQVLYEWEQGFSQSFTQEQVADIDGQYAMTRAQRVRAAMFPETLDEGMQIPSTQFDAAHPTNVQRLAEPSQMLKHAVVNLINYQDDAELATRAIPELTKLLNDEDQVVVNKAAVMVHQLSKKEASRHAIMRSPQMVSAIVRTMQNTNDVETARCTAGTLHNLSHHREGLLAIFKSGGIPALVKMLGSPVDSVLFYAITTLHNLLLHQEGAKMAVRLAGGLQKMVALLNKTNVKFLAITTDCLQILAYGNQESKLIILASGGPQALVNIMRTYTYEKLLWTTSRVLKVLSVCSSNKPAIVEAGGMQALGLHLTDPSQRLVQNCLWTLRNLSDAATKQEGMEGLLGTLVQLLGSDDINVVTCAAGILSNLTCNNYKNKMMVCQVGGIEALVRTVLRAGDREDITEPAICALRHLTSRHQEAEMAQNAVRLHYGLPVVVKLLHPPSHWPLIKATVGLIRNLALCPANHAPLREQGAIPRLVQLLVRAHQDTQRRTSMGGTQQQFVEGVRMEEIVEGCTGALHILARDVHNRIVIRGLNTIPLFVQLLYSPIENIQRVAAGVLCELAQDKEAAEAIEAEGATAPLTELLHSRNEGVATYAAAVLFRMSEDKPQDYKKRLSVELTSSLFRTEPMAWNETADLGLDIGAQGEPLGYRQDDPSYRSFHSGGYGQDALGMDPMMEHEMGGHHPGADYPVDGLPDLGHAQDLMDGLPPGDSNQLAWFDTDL
Assay: Fluorescence polarization IC50 (beta-catenin / 5FAM-TCF4 10-53 competition)
Format: binding

[1] = fluorescence polarization, read-out: beta-Catenin FP IC50

Compound	pIC50 [1]	pIC50 (beta-Catenin FP IC50, fluorescence polarization)
CC(=O)N1CCC[C@]12CC=CCCCC1(CCCC=CCCCOC(=O)N3CC[C@@](C(=O)N[C@@H](Cc4ccccc4Cl)C(=O)N[C@@H](Cc4csc5ccccc45)C(=O)N[C@@H](CC(C)C)C(N)=O)(C3)NC(=O)[C@H](CC(C)C)NC(=O)[C@H](Cc3ccccc3)NC(=O)[C@H](C)NC(=O)[C@H](C)NC(=O)[C@H](CC(=O)O)NC(=O)[C@H](CC(=O)O)NC1=O)NC(=O)[C@H](CC(N)=O)NC(=O)[C@H](CC(=O)O)NC2=O (stereo partly drawn) [I-1422, Ac-PL3-Asp-Asn-B5-Asp-Asp-Ala-Ala-Phe-Leu-PyrS2-2C1F-BztA-Leu-NH2]	–	6.41
CC[C@@H]1NC(=O)[C@H](Cc2ccccc2)NC(=O)[C@H](C)NC(=O)C(C)(C)NC(=O)[C@H](Cc2cccc(C(=O)O)c2)NC(=O)[C@H](CC(=O)O)NC(=O)C2(CCCC=CCCCOC(=O)N3CC[C@@](C(=O)N[C@@H](Cc4ccsc4)C(=O)N[C@@H](Cc4csc5ccccc45)C(=O)N[C@@H](CCC(=O)N4CCCCC4)C(=O)N[C@@H](C)C(N)=O)(C3)NC1=O)CCCC=CC[C@]1(CCCN1C(C)=O)C(=O)N[C@@H](CC(=O)O)C(=O)N[C@@H](CC(C)(C)C)C(=O)N2 (stereo partly drawn) [I-2476, Ac-PL3-Asp-Npg-B5-Asp-3COOHF-Aib-Ala-Phe-Abu-PyrS2-3Thi-BztA-[Pip]GlnR-Ala-NH2]	8.15	–
CC(=O)N1CCC[C@]12CC=CCCCC1(CCCC=CCCCOC(=O)N3CC[C@@](C(=O)N[C@@H](CC4CCCC4)C(=O)N[C@@H](Cc4csc5ccccc45)C(=O)N[C@@H](CO)C(N)=O)(C3)NC(=O)[C@H](CC(C)C)NC(=O)[C@H](Cc3ccccc3)NC(=O)[C@H](C)NC(=O)[C@H](C)NC(=O)[C@H](Cc3cccc(C(=O)O)c3)NC(=O)[C@H](CC(=O)O)NC1=O)NC(=O)[C@H](CC(C)(C)C)NC(=O)[C@H](CC(=O)O)NC2=O (stereo partly drawn) [I-1896, Ac-PL3-Asp-Npg-B5-Asp-3COOHF-Ala-Ala-Phe-Leu-PyrS2-CypA-BztA-Ser-NH2]	7.12	–
CC(=O)N1CCC[C@]12CC=CCCCC1(CCCC=CCCCOC(=O)N3CC[C@@](C(=O)N[C@@H](Cc4cccc(-c5ccccc5)c4)C(=O)N[C@@H](Cc4ccccc4)C(=O)N[C@@H](CCC(N)=O)C(N)=O)(C3)NC(=O)[C@H](CC(C)C)NC(=O)[C@H](Cc3ccccc3)NC(=O)[C@H](C)NC(=O)[C@H](C)NC(=O)[C@H](Cc3cccc(C(=O)O)c3)NC(=O)[C@H](CC(=O)O)NC1=O)NC(=O)[C@H](CC(C)(C)C)NC(=O)[C@H](CC(=O)O)NC2=O (stereo partly drawn) [I-2214, Ac-PL3-Asp-Npg-B5-Asp-3COOHF-Ala-Ala-Phe-Leu-PyrS2-[Ph]-3SF-Phe-Gln-NH2]	5.73	–
CC(=O)N1CCC[C@]12CC=CCCCC1(CCCC=CCCCOC(=O)N3CC[C@@](C(=O)N[C@@H](Cc4ccccc4C(F)(F)F)C(=O)N[C@@H](Cc4csc5ccccc45)C(=O)N[C@@H](CO)C(N)=O)(C3)NC(=O)[C@H](CC(C)C)NC(=O)[C@H](Cc3ccccc3)NC(=O)[C@H](C)NC(=O)[C@H](C)NC(=O)[C@H](Cc3ccccc3C(=O)O)NC(=O)[C@H](CC(=O)O)NC1=O)NC(=O)[C@H](CC(C)(C)C)NC(=O)[C@H](CC(=O)O)NC2=O (single isomer, unassigned) [I-1660, Ac-PL3-Asp-Npg-B5-Asp-2COOHF-Ala-Ala-Phe-Leu-PyrS2-2F3MeF-BztA-Ser-NH2]	7.00	–
CC(=O)N1CCC[C@]12CC=CCCCC1(CCCC=CCCCOC(=O)N3CC[C@@](C(=O)N[C@@H](Cc4cccc(C(N)=O)c4)C(=O)N[C@@H](Cc4csc5ccccc45)C(=O)N[C@@H](CCC(N)=O)C(N)=O)(C3)NC(=O)[C@H](CC(N)=O)NC(=O)[C@H](Cc3ccccc3)NC(=O)[C@H](C)NC(=O)[C@H](CCCCNC(C)C)NC(=O)[C@H](CCC(N)=O)NC(=O)[C@H](CC(=O)O)NC1=O)NC(=O)[C@H](CC1CCCCC1)NC(=O)[C@H](CC(N)=O)NC2=O (stereo partly drawn) [I-2164, Ac-PL3-Asn-Cha-B5-Asp-Gln-iPrLys-Ala-Phe-Asn-PyrS2-3cbmf-BztA-Gln-NH2]	5.93	–
CC(=O)N1CCC[C@]12CC=CCCCC1(CCCC=CCCCOC(=O)N3CC[C@@](C(=O)N[C@@H](Cc4ccsc4)C(=O)N[C@@H](Cc4csc5ccccc45)C(=O)N[C@@H](CCC(N)=O)C(N)=O)(C3)NC(=O)[C@H](CC(N)=O)NC(=O)[C@H](Cc3ccccc3)NC(=O)[C@H](C)NC(=O)[C@H](C)NC(=O)[C@H]([C@@H](C)O)NC(=O)[C@H](CC(N)=O)NC1=O)NC(=O)[C@H](CC1CCCCC1)NC(=O)[C@H](CC(=O)O)NC2=O (stereo partly drawn) [I-1885, Ac-PL3-Asp-Cha-B5-Asn-Thr-Ala-Ala-Phe-Asn-PyrS2-3Thi-BztA-Gln-NH2]	6.59	–
CC(=O)N1CCC[C@]12CC=CCCCC1(CCCC=CCCCOC(=O)N3CC[C@@](C(=O)N[C@@H](Cc4ccsc4)C(=O)N[C@@H](Cc4cccc(F)c4F)C(=O)N[C@@H](CCC(N)=O)C(N)=O)(C3)NC(=O)[C@H](CC(C)C)NC(=O)[C@H](Cc3ccccc3)NC(=O)[C@H](C)NC(=O)[C@H](C)NC(=O)[C@H](CC(=O)O)NC(=O)[C@H](CC(=O)O)NC1=O)NC(=O)[C@H](CC(C)(C)C)NC(=O)[C@H](CC(=O)O)NC2=O (stereo partly drawn) [I-1425, Ac-PL3-Asp-Npg-B5-Asp-Asp-Ala-Ala-Phe-Leu-PyrS2-3Thi-23FF-Gln-NH2]	6.62	–

Further compounds by rising pIC50 [1], results first:

pIC50 [1]	Compound	pIC50 (beta-Catenin FP IC50, fluorescence polarization)
6.03	CC(=O)N1CCC[C@]12CC=CCCCC1(CCCC=CCCCOC(=O)N3CC[C@@](C(=O)N[C@@H](Cc4ccccc4)C(=O)N[C@@H](Cc4csc5ccccc45)C(=O)N[C@@H](CCCCNC(C)C)C(N)=O)(C3)NC(=O)[C@H](CC(C)C)NC(=O)[C@H](Cc3ccccc3)NC(=O)[C@H](C)NC(=O)[C@H](CCCCNC(C)C)NC(=O)[C@H](CCC(N)=O)NC(=O)[C@H](CC(=O)O)NC1=O)NC(=O)[C@H](CC(C)(C)C)NC(=O)[C@H](CC(N)=O)NC2=O (stereo partly drawn) [I-1645, Ac-PL3-Asn-Npg-B5-Asp-Gln-iPrLys-Ala-Phe-Leu-PyrS2-Phe-BztA-iPrLys-NH2]	–
6.23	CC(=O)N1CCC[C@]12CC=CCCCC1(CCCC=CCCCOC(=O)N3CC[C@@](C(=O)N[C@@H](Cc4cscn4)C(=O)N[C@@H](Cc4csc5ccccc45)C(=O)N[C@@H](CCO)C(N)=O)(C3)NC(=O)[C@H](CC(N)=O)NC(=O)[C@H](Cc3ccccc3)NC(=O)[C@H](C)NC(=O)[C@H](CCCCNC(C)C)NC(=O)[C@H](CCC(N)=O)NC(=O)[C@H](CC(=O)O)NC1=O)NC(=O)[C@H](CC1CCCCC1)NC(=O)[C@H](CC(N)=O)NC2=O (stereo partly drawn) [I-2071, Ac-PL3-Asn-Cha-B5-Asp-Gln-iPrLys-Ala-Phe-Asn-PyrS2-4Thz-BztA-Hse-NH2]	–
6.25	CC(=O)N1CCC[C@]12CC=CCCCC1(CCCC=CCCCOC(=O)N3CC[C@@](C(=O)N[C@@H](Cc4ccsc4)C(=O)N[C@@H](Cc4csc5ccccc45)C(=O)N[C@H](C(N)=O)C(C)C)(C3)NC(=O)[C@H](CC(N)=O)NC(=O)[C@H](Cc3ccccc3)NC(=O)[C@H](C)NC(=O)[C@H](C)NC(=O)[C@H]([C@@H](C)O)NC(=O)[C@H](CC(N)=O)NC1=O)NC(=O)[C@H](CC(C)(C)C)NC(=O)[C@H](CC(=O)O)NC2=O (stereo partly drawn) [I-1879, Ac-PL3-Asp-Npg-B5-Asn-Thr-Ala-Ala-Phe-Asn-PyrS2-3Thi-BztA-Val-NH2]	–
6.29	CC(=O)N1CCC[C@]12CC=CCCCC1(CCCC=CCCCOC(=O)N3CC[C@@](C(=O)N[C@@H](Cc4ccccc4C)C(=O)N[C@@H](Cc4csc5ccccc45)C(=O)N[C@@H](CCC(N)=O)C(N)=O)(C3)NC(=O)[C@H](CC(N)=O)NC(=O)[C@H](Cc3ccccc3)NC(=O)[C@H](C)NC(=O)[C@H](C)NC(=O)[C@H]([C@@H](C)O)NC(=O)[C@H](CC(N)=O)NC1=O)NC(=O)[C@H](CC(C)(C)C)NC(=O)[C@H](CC(=O)O)NC2=O (stereo partly drawn) [I-1737, Ac-PL3-Asp-Npg-B5-Asn-Thr-Ala-Ala-Phe-Asn-PyrS2-2MeF-BztA-Gln-NH2]	–
7.32	CC(=O)N1CCC[C@]12CC=CCCCC1(CCCC=CCCCCCC[C@@](C)(C(=O)N[C@@H](Cc3ccsc3)C(=O)N[C@@H](Cc3csc4ccccc34)C(=O)N[C@@H](CCC(N)=O)C(N)=O)NC(=O)[C@H](CC(N)=O)NC(=O)[C@H](Cc3ccccc3)NC(=O)[C@H](C)NC(=O)[C@H](C)NC(=O)[C@H](CN(CC(=O)O)Cc3c(F)c(F)c(F)c(F)c3F)NC(=O)[C@H](CC(=O)O)NC1=O)NC(=O)[C@H](CC(C)(C)C)NC(=O)[C@H](CC(=O)O)NC2=O (stereo partly drawn) [I-1624, Ac-PL3-Asp-Npg-B5-Asp-[Pfbn]GA-Ala-Ala-Phe-Asn-S8-3Thi-BztA-Gln-NH2]	–
7.96	CC(=O)N1CCC[C@]12CC=CCCCC1(CCCC=CCCCOC(=O)N3CC[C@@](C(=O)N[C@@H](Cc4ccccc4Cl)C(=O)N[C@@H](Cc4csc5ccccc45)C(=O)N[C@@H](CCC(N)=O)C(N)=O)(C3)NC(=O)[C@H]([C@@H](C)O)NC(=O)[C@H](Cc3ccccc3)NC(=O)[C@H](C)NC(=O)CNC(=O)[C@H](CN(CC(=O)O)CC(F)(F)F)NC(=O)[C@H](CC(=O)O)NC1=O)NC(=O)[C@H](CC(C)(C)C)NC(=O)[C@H](CC(=O)O)NC2=O (stereo partly drawn) [I-1690, Ac-PL3-Asp-Npg-B5-Asp-TfeGA-Gly-Ala-Phe-Thr-PyrS2-2C1F-BztA-Gln-NH2]	–
